pEC50: −log10 of the molar value. Where only a bound is given, the exact number is not on record here.

Assay [1] has as its system Human Mobilized Peripheral Blood Primary CD34+ cells. The assay can be described thus: Fetal hemoglobin (HbF) upregulation assay of CD34+ cells. In kind it is cell-based. The method, then:
Human Mobilized Peripheral Blood Primary CD34+ cells were expanded from thaw by seeding 100,000 viable cells/mL in a culture flask containing CD34+ Expansion Media comprised of StemSpan SFEMII (Stemcell Technologies #09655), 1% erythroid expansion supplement (Stemcell Technologies #02692), and 1 μM dexamethasone (Sigma #D2915). The cells were supplemented by adding an additional IX culture volume of CD34+ Expansion Media on Day 3 after thaw. After 7 days of expansion, Primary CD34+ cells were differentiated towards erythroid lineage by seeding at 15,000 viable cells/well in 96-well V-Bottom plates (Corning #3894) containing 135 μL CD34+ Differentiation Media comprised of StemSpan SFEMII (Stemcell Technologies #09655), 3% normal human serum (Sigma #H4522), 3 IU/mL erythropoietin (ThermFisher #PHC2054). Chemical probes for treatment were resuspended in 100 μL of Iscove's Modified Dulbecco's Medium (Stemcell Technologies #36150) to a 10× concentration, and 15 μL of 10× concentrated chemical probe was added to each well for a total well volume of 150 μL. Primary CD34+ cells were left to incubate at 37° C., 85% relative humidity, and 5% C02 for 3 days. On Day 3, assay plates containing Primary CD34+ cells were centrifuged at 500×g for 5 minutes. After centrifugation cells were pelleted to the bottom of the well, and 100 μL of media aspirated from the well without disturbing the cells. Then 90 μL of fresh CD34+ Differentiation Media and 10 μL of 10× concentrated chemical probes were added back each well. For the H3K27me3 assay, cells were harvested on Day 4 of treatment. The Primary CD34+ cells were centrifuged at 500×g for 5 minutes and all media was aspirated from the well. Then 150 μL of phosphate buffered saline (ThermoFisher #10010023) was added to each well to resuspend the cells. Finally, 50 μL of the Primary CD34+ cell suspension from each well was transferred to a poly-d-lysine coated 384-well plate (Corning Cat #356697) and centrifuged at 1000×g for 5 minutes before proceeding to ICC Fix and Stain Protocol. Assay plates for the HbF assay were returned to the incubator until Day 5, where the media was exchanged and chemical probes added exactly as on Day 3. On Day 7 of the HbF assay, the Primary CD34+ cells were harvested in the same manner as described for the H3K27me3 assay before proceeding to ICC Fix and Stain Protocol. […]
The plates were then scanned on the CX7 at 10× magnification, and 9 images were acquired per well. The software algorithm then identified nuclei and calculated a total nuclei count using the Hoechst staining on channel 1. After nuclei were identified, the algorithm calculated the average nuclear intensity of the H3K27me3 or HbF staining on channel 2. […]

Another assay deals with HUDEP2 cells. As to the kind of experiment: Fetal hemoglobin (HbF) upregulation assay of HUDEP2 cells. In kind it is cell-based. The method, then: HUDEP2 cells were maintained and passaged every 2-3 days by seeding 300,000 viable cells/mL in a culture flask containing HUDEP2 Growth Media comprised of StemSpan SFEM (Stemcell Technologies #09650), 50 ng/mL human stem cell factor (Stemcell Technologies #78062.2), 3 IU/mL erythropoietin (ThermoFisher #PHC2054), 1 μM dexamethasone (Sigma #D2915), and […] doxycycline (Sigma #D3072). HUDEP2 cells were differentiated towards erythroid lineage by seeding at 25,000 viable cells/well in 96-well V-Bottom plates (Corning #3894) containing 135 μL HUDEP2 Differentiation Media comprised of Iscove's Modified Dulbecco's Medium (Stemcell Technologies #36150), 1% L-glutamine (ThermoFisher #25030081), 2% penicillin-streptomycin (ThermoFisher #15140122), 330 μg/mL holo-human transferrin (Sigma #T0665), 2 IU/mL heparin (Stemcell Technologies #07980), 10 μg/mL recombinant human insulin (Sigma #91077C), 3 IU/mL erythropoietin (ThermoFisher #PHC2054), 100 ng/mL human stem cell factor (Stemcell Technologies #78062.2), and 4% fetal bovine serum (ThermoFisher #A3160502). Chemical probes for treatment were resuspended in 100 μL of Iscove's Modified Dulbecco's Medium (Stemcell Technologies #36150) to a 10× concentration, and 15 μL of 10× concentrated chemical probes were added to each well for a total well volume of 150 μL. HUDEP2 cells were left to incubate at 37° C., 85% relative humidity, and 5% CO2 for 3 days. On Day 3, assay plates containing HUDEP2 cells were centrifuged at 500×g for 5 minutes. After centrifugation cells were pelleted to the bottom of the well, and 100 μL of media aspirated from the well without disturbing the cells. Then 90 μL of fresh HUDEP2 Differentiation Media and 10 μL of 10× concentrated chemical probes were added back each well. For the H3K27me3 assay, cells were harvested on Day 4 of treatment. The HUDEP2 cells were centrifuged at 500×g for 5 minutes and all media was aspirated from the well. Then 150 μL of phosphate buffered saline (ThermoFisher #10010023) was added to each well to resuspend the cells. Finally, 50 μL of the HUDEP2 cell suspension from each well was transferred to a poly-d-lysine coated 384-well plate (Corning Cat #356697) and centrifuged at 1000×g for 5 minutes before proceeding to ICC Fix and Stain Protocol. Assay plates for the HbF assay were returned to the incubator until Day 5, where the media was exchanged and chemical probes added exactly as on Day 3. On Day 7 of the HbF assay, the HUDEP2 cells were harvested in the same manner as described for the H3K27me3 assay before proceeding to ICC Fix and Stain Protocol.
The Fix and Stain Protocol was the same for HEK293T, HUDEP2, and Primary CD34+ cell assays except the specific primary and secondary antibodies used for detection. Following 4 days of compound treatment, the respective plates were washed once with 25 μL of PBS (ThermoFisher #10010023) and fixed with 25 μL of 4% paraformaldehyde (ThermoFisher #28908) for 10 minutes at room temperature. The plates were then washed three times with 25 μL of PBS. Subsequent to that, the cells were permeabilized and blocked for 1 hour at room temperature in 25 μL of Perm/Block buffer comprised of IX PBS, 1% bovine serum albumin (ThermoFisher #A3294), 10% fetal bovine serum (ThermoFisher #A3160502), 0.3M glycine (Sigma #G7126), and 0.1% tween-20 (Sigma #P7949). This was followed by additional washing (three times) of the plates with 25 μL of 0.1% tween in PBS.
Plates for the HbF assay were treated similarly as described above except that HbF Primary Antibody (ThermoFisher #MHFH01-4) diluted 1:40 in 0.1% tween-20 in PBS and Hoescht (ThermoFisher #H3570) diluted 1:2000 in 0.1% tween-20 in PBS were used for detection.
The plates were then scanned on the CX7 at 10× magnification, and 9 images were acquired per well. The software algorithm then identified nuclei and calculated a total nuclei count using the Hoechst staining on channel 1. […]

In assay [1], `Cc1cn(-c2cc3c(n4cnnc24)NCc2c(F)ccc4c2[C@@H](CO4)CO3)cn1` [Compound 15, (S)-12-fluoro-4-(4-methyl-1H-imidazol-1-yl)-7a,8,13,14-tetrahydro-7H-[1,2,4]triazolo[4′,3′:1,6]pyrido[3,2-b]benzofuro[4,3-fg][1,4]oxazonine] showed a pEC50 of 6.30 to 7.00.

Take `Cc1cc(C#N)ccc1-c1cc2c(n3cnnc13)NCc1c(F)ccc3c1[C@H](CO3)CO2` [Example 49]: the pEC50 in the assay on HUDEP2 cells was 7.00 to 7.30.

As for `Cn1nc(C(F)(F)F)cc1-c1cc2c(n3cnnc13)NCc1c(F)ccc3c1[C@H](CO3)CO2` [Example 115], the pEC50 with HUDEP2 cells is > 7.60; in assay [1], 7.00 to 7.30.

In the case of `CS(=O)(=O)c1ccc(-c2cc3c(n4cnnc24)NCc2c(F)ccc4c2C(CO4)CO3)cc1` (stereo not shown) [Example 36], the negative-log EC50 (pEC50) with HUDEP2 cells is 7.00 to 7.30.

Molecule `Cc1ncc(-c2cc3c(n4cnnc24)NCc2c(F)ccc4c2[C@@H](CO4)CO3)c(C)n1` [Compound 13, (S)-4-(2,4-dimethylpyrimidin-5-yl)-12-fluoro-7a,8,13,14-tetrahydro-7H-[1,2,4]triazolo[4′,3′:1,6]pyrido[3,2-b]benzofuro[4,3-fg][1,4]oxazonine] showed a pEC50 in the assay with HUDEP2 cells of 7.00 to 7.30.

Regarding `Cn1nccc1-c1cc2c(n3cnnc13)NCc1c(F)ccc3c1C(CO3)CO2` (stereo not shown) [Example 17], the pEC50 (in the assay on HUDEP2 cells; in assay [1]) was > 7.60 each time.

Take `COc1ncc(-c2cc3c(n4cnnc24)NCc2c(F)ccc4c2[C@H](CO4)CO3)cn1` [Example 30]: the pEC50 in the assay on HUDEP2 cells is 6.30 to 7.00.

As to `Fc1cncnc1-c1cc2c(n3cnnc13)NCc1c(F)ccc3c1[C@@H](CO3)CO2` [Compound 164, (S)-12-fluoro-4-(5-fluoropyrimidin-4-yl)-7a,8,13,14-tetrahydro-7H-[1,2,4]triazolo[4′,3′:1,6]pyrido[3,2-b]benzofuro[4,3-fg][1,4]oxazonine], the pEC50 in assay [1] was > 7.60.

These data come from US20220160686A1, “MACROCYCLIC AZOLOPYRIDINE DERIVATIVES AS EED AND PRC2 MODULATORS” (Fulcrum Therapeutics, Inc., priority 2019, published 2022).
